Laboratory results from patent US11419335B2, “N-arylated analogues and uses thereof” (University of Florida Research Foundation, Incorporated, priority 2016, dated 2022).
Converted amounts (≈) assume the structure as drawn.

Legend:
[1] = system: methicillin-resistant Staphylococcus aureus MRSA-2 (clinical isolate); experiment: MIC broth microdilution, MRSA-2; assay type: cell-based; conditions: Table 4
Experimental: (§1) The minimum inhibitory concentration (MIC) for each tested compound was determined by the broth microdilution method as recommended by the Clinical and Laboratory Standards Institute (CLSI). In a 96-well plate, eleven two-fold serial dilutions of each compound were made in a final volume of 100 μL Luria Broth. Each well was inoculated with ˜10^5 bacterial cells at the initial time of incubation, prepared from a fresh log phase culture (OD600 of 0.5 to 1.0 depending on bacterial strain). The MIC was defined as the lowest concentration of compound that prevented bacterial growth after incubating 16 to 18 hours at 37° C. (MIC values were supported by spectrophotometric readings at OD600). DMSO served as our vehicle and negative control in each microdilution MIC assay. DMSO was serially diluted with a top concentration of 1% v/v.
as §1, with “for each compound was” for “for each tested compound was”, “Standards Institute (CLSI).^6 In a” for “Standards Institute (CLSI). In a”, “concentration of test compound that” for “concentration of compound that”, “37° C. The concentration range tested for each compound during this study was 0.10 to 100 μM. DMSO served” for “37° C. (MIC values were supported by spectrophotometric readings at OD600). DMSO served”, “1% v/v. All MIC values were obtained from a minimum of three independent experiments.” for “1% v/v.”

MRSA BAA-1707 = experiment: MIC broth microdilution, MRSA BAA-1707; assay type: cell-based, Staphylococcus aureus; conditions: Table 4
Experimental: as §1, with “The MIC was defined as the lowest concentration of compound that prevented bacterial growth after incubating 16 to 18 hours at 37° C.” left out
Each well was inoculated with ˜10^5 bacterial cells at the initial time of incubation, prepared from a fresh log phase culture (OD600 of 0.5 to 1.0 depending on bacterial strain). […] The concentration range tested for each compound during this study was 0.10 to 100 μM. DMSO served as our vehicle and negative control in each microdilution MIC assay. DMSO was serially diluted with a top concentration of 1% v/v. All MIC values were obtained from a minimum of three independent experiments.

[2] = system: methicillin-resistant Staphylococcus epidermidis (MRSE strain ATCC 35984); experiment: MIC broth microdilution, MRSE 35984; assay type: cell-based; conditions: Table 4
Experimental: as §1
as §1, with “for each compound was” for “for each tested compound was”, “Standards Institute (CLSI).^6 In a” for “Standards Institute (CLSI). In a”, “concentration of test compound that” for “concentration of compound that”, “37° C. The concentration range tested for each compound during this study was 0.10 to 100 μM. DMSO served” for “37° C. (MIC values were supported by spectrophotometric readings at OD600). DMSO served”, “1% v/v. All MIC values were obtained from a minimum of three independent experiments.” for “1% v/v.”

[3] = system: vancomycin-resistant Enterococcus faecium (VRE strain ATCC 700221); experiment: MIC broth microdilution, VRE 700221; assay type: cell-based; conditions: Table 4
Experimental: as §1
as §1, with “for each compound was” for “for each tested compound was”, “Standards Institute (CLSI).^6 In a” for “Standards Institute (CLSI). In a”, “concentration of test compound that” for “concentration of compound that”, “37° C. The concentration range tested for each compound during this study was 0.10 to 100 μM. DMSO served” for “37° C. (MIC values were supported by spectrophotometric readings at OD600). DMSO served”, “1% v/v. All MIC values were obtained from a minimum of three independent experiments.” for “1% v/v.”

[4] = system: Acinetobacter baumannii (ATCC 1794); experiment: MIC broth microdilution, A. baumannii 1794; assay type: cell-based; conditions: Table 4
Experimental: as §1
as §1, with “for each compound was” for “for each tested compound was”, “Standards Institute (CLSI).^6 In a” for “Standards Institute (CLSI). In a”, “concentration of test compound that” for “concentration of compound that”, “37° C. The concentration range tested for each compound during this study was 0.10 to 100 μM. DMSO served” for “37° C. (MIC values were supported by spectrophotometric readings at OD600). DMSO served”, “1% v/v. All MIC values were obtained from a minimum of three independent experiments.” for “1% v/v.”

[5] = system: Pseudomonas aeruginosa (PAO1); experiment: MIC broth microdilution, PAO1; assay type: cell-based; conditions: Table 4
Experimental: as §1
as §1, with “for each compound was” for “for each tested compound was”, “Standards Institute (CLSI).^6 In a” for “Standards Institute (CLSI). In a”, “concentration of test compound that” for “concentration of compound that”, “37° C. The concentration range tested for each compound during this study was 0.10 to 100 μM. DMSO served” for “37° C. (MIC values were supported by spectrophotometric readings at OD600). DMSO served”, “1% v/v. All MIC values were obtained from a minimum of three independent experiments.” for “1% v/v.”

[6] = system: Klebsiella pneumoniae (ATCC 13883); experiment: MIC broth microdilution, K. pneumoniae 13883; assay type: cell-based; conditions: Table 4
Experimental: as §1
as §1, with “for each compound was” for “for each tested compound was”, “Standards Institute (CLSI).^6 In a” for “Standards Institute (CLSI). In a”, “concentration of test compound that” for “concentration of compound that”, “37° C. The concentration range tested for each compound during this study was 0.10 to 100 μM. DMSO served” for “37° C. (MIC values were supported by spectrophotometric readings at OD600). DMSO served”, “1% v/v. All MIC values were obtained from a minimum of three independent experiments.” for “1% v/v.”

[7] = system: Escherichia coli clinical isolate (UAEC-1); experiment: MIC broth microdilution, UAEC-1; assay type: cell-based; conditions: Table 4
Experimental: as §1
as §1, with “for each compound was” for “for each tested compound was”, “Standards Institute (CLSI).^6 In a” for “Standards Institute (CLSI). In a”, “concentration of test compound that” for “concentration of compound that”, “37° C. The concentration range tested for each compound during this study was 0.10 to 100 μM. DMSO served” for “37° C. (MIC values were supported by spectrophotometric readings at OD600). DMSO served”, “1% v/v. All MIC values were obtained from a minimum of three independent experiments.” for “1% v/v.”

[8] = system: human red blood cells (hRBC); experiment: Hemolysis of red blood cells; assay type: cell-based; conditions: Table 4; concentration required to lyse 50% of red blood cells
Experimental: The washing was repeated three times with the buffer. In a 96-well plate, test compounds were added to the buffer from DMSO stocks. […] The plate was then incubated for 1 hour at 37° C. After incubation, the plate was centrifuged for 5 minutes at 3,500 rpm. Then 80 μL of the supernatant was transferred to another 96-well plate and the optical density (OD) was read at 405 nm. DMSO served as our negative control (0% hemolysis) while Triton X served as our positive control (100% hemolysis). […] All reported data correspond to three independent experiments. Ten-point dose-response curves were generated in 96-well plates to determine 50% hemolysis (HC50 values) of red blood cells.
The washing was repeated three times with the buffer. In 96-well plate, the test compounds were added to the buffer. Then 50 μL of 2% of hRBCs in the buffer were added to the test plate to make the final concentrations ranging from 0.2 to 200 μM of each test compound. The plate was then incubated for 1 hour at 37° C. After incubation, the plate was centrifuged for 5 minutes at 3500 rpm and then 80 μL of the supernatant was transferred to another 96-well plate and the Optical Density (OD) was read at 405 nm. DMSO served as our negative control (0% haemolysis) and Triton X served as our positive control (100% haemolysis). The HC50 (concentration of test compound required to lyse red blood cells by 50%) was calculated by plotting the dose-response curve (not shown) with Graphpad Prism 6.0. All data were obtained from three independent haemolysis experiments.

C. albicans SC5314 = experiment: Fungal MIC susceptibility assay, C. albicans; assay type: cell-based, Candida albicans; conditions: Table 4; antifungal
Experimental: (§2) Fungal minimum inhibition concentrations (MICs) were determined using standard microdilution methods according to the Clinical and Laboratory Standards Institute document M27-A3. The test compound concentration ranged from 0.01 to 100 μM. Amphotericin B (AmB) and itraconazole (ITC) (Fisher Scientific) were included as positive controls. DMSO, the vehicle control, was used at ≤1% v/v for these experiments. The fungal M27-A3 standard MIC assay protocol requires the following inoculum preparation protocol: The organisms were cultured onto PDA medium at 35° C. The inoculum is prepared by picking five colonies from 24-hour old culture of Candida spp. or 48-hour old culture of C. neoformans. The inoculum was suspended in 5 ml of sterile water, the resulting suspension was vortexed for 15 seconds and the cell density adjusted (by adding more sterile water) to an OD530=0.30, which yields a suspension of 1×10^6 to 5×10^6 cells per mL. The suspension was diluted 50 times and then 20 times using RPMI 1640 medium to obtain the two times test inoculum (1×10^3 to 5×10^3 cells per mL). The following steps are the same with the standard bacterial MIC protocol using 96-well plates. NOTE: RPMI 1640 medium was used in the fungal MIC assay (for both cell inoculum and compound dilution).

C. neoformans ATCC 66031 = experiment: Fungal MIC susceptibility assay, C. neoformans; assay type: cell-based; conditions: Table 4; antifungal
Experimental: as §2

Row | MIC C. albicans SC5314 (C. albicans SC5314) | MIC C. neof 66031 (C. neoformans ATCC 66031) | SMILES | MIC MRSA-2 [1] | MIC MRSA 1707 (MRSA BAA-1707) | MIC MRSE 35984 [2] | MIC VRE 700221 [3] | MIC A. bau. 1794 [4] | MIC PAO1 [5] | MIC K. pneu. 13883 [6] | MIC UAEC-1 [7] | RBC HC50 [8]
1 |  |  | CCCCCCCCCCCCCCCCn1cc[n+](Cc2ccccc2C[n+]2ccn(CCCCCCCCCCCCCCCC)c2C)c1C.[Br-].[Br-] [Compound 29] | >100 µM | >100 µM | >100 µM | >100 µM | >100 µM | >100 µM | >100 µM | >100 µM | 34.5 µM
2 | 0.78 µM (≈ 0.721 µg/mL) | 0.1 µM (≈ 0.0924 µg/mL) | C[C@@H]1[C@H](O)[C@@H](C)/C=C/C=C/C=C/C=C/C=C/C=C/C=C/[C@H](O[C@@H]2O[C@H](C)[C@@H](O)[C@H](N)[C@@H]2O)C[C@@H]2O[C@](O)(C[C@@H](O)C[C@@H](O)[C@H](O)CC[C@@H](O)C[C@@H](O)CC(=O)O[C@H]1C)C[C@H](O)[C@H]2C(=O)O [Amp. B, Amphotericin B, reference compound] |  |  |  |  |  |  |  |  | 
